Results taken from US11787833B2, “Modified cyclic dinucleoside compounds as sting modulators” (ALIGOS THERAPEUTICS, INC., priority 2019, dated 2023).
Read-outs that look alike come from different tables or passages of the source.

Molecular target: T1, 293T-Dual hSTING-R232 cells (Homo sapiens, UniProt Q86WV6, H232R)
T1 construct: host or cells: 293T-Dual hSTING-R232 cells (HEK 293T)
Assay: 293T R232 cell reporter assay (HEK 293T reporter assay)
Assay type: cell-based
Details: digitonin 10 μg/mL, 30 min exposure, 20 h incubation
Procedure: 293T-Dual hSTING-R232 cells (Invivogen) were plated in 96 well plates at a density of 5×10^4 cells per well in DMEM supplemented with 10% FBS, 1% Pen-Strep, 1% non-essential amino acids, 1% glutamine, and 1% HEPES. Assay setup took place after allowing cells to adhere for 48 h. Compounds dissolved in water were serially diluted in dosing buffer containing 10 μg/mL digitonin. Media was aspirated from the cells, and 50 μL buffer with compound was added in triplicate. After 30 min at 37° C., buffer was aspirated and replaced with 100 μL media. Cells were incubated for 20 h at 37° C., 5% CO2. IFN-beta expression and activation of the interferon regulatory factor (IRF) were measured based on luciferase and alkaline phosphatase reporter activity, respectively. Cell viability was determined in parallel.

[1] = alkaline phosphatase reporter, read-out: EC50 [μM] IRF reporter
[2] = luciferase reporter, read-out: EC50 [μM] IRN-β reporter
[3] = EC50 [μM] IRF reporter, alkaline phosphatase reporter
[4] = EC50 [μM] IRN-β reporter, luciferase reporter

T1 sequence (Q86WV6 whole entry H232R): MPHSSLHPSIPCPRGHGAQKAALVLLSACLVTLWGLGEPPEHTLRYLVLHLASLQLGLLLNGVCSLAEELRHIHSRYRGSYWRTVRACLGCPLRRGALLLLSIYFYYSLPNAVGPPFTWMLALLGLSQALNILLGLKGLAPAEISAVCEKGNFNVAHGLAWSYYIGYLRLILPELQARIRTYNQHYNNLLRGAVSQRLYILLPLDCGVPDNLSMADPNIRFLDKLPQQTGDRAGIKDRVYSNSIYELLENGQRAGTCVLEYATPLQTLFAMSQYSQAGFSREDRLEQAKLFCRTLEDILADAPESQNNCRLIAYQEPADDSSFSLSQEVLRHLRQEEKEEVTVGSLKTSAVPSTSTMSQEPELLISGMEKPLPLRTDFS

COC1C2COP(=O)(S)OC3C(COP(=O)(O)OC1C(n1cnc4c(=O)[nH]c(N)nc41)O2)C1CC1(n1cnc2c(N)ncnc21)C3O (stereo not drawn) [Compound 1-16a]
EC50 [1]: 0.25 to 100 µM | EC50 [2]: 0.25 to 100 µM

Nc1nc2c(nnn2[C@@H]2O[C@@H]3CO[P@@](=O)([S][Na])O[C@H]4[C@@H](O)[C@H](n5cnc6c(N)ncnc65)[C@H]5C[C@@]54COP(=O)(O)O[C@@H]2[C@@H]3O)c(=O)[nH]1 [Compound 1-34b]
EC50 [3]: 0.25 to 100 µM | EC50 [4]: 0.25 to 100 µM

Nc1nc2c(ncn2[C@H]2[C@H](O)[C@@H]3OP(=O)(O)OC[C@H]4C[C@@H](n5cnc6c(N)ncnc65)[C@H](O)[C@@H]4OP(=O)(O)OC[C@@]34C[C@H]24)c(=O)[nH]1 [Compound 1-23]
EC50 [1]: 0.25 to 100 µM | EC50 [2]: 0.25 to 100 µM

Nc1nc2c(ncn2[C@H]2[C@@H]3OP(=O)(O)OC[C@H]4O[C@@H](n5cnc6c(N)ncnc65)[C@H](F)[C@@H]4OP(=O)(O)OC[C@]4(C[C@H]24)[C@H]3O)c(=O)[nH]1 [Compound 1-8]
EC50 [1]: 0.25 to 100 µM | EC50 [2]: 0.25 to 100 µM

COC1C2COP(=O)(O)OC3C(COP(=O)(O)OC1C(c1scc4c(=O)[nH]c(N)nc14)O2)OC(n1cnc2c(N)ncnc21)C3F (stereo not drawn) [Compound 1-5]
EC50 [1]: < 0.25 µM | EC50 [2]: < 0.25 µM

Nc1ncnc2c1ncn2C1OC2COP(=O)(S)OC3C(O)C(n4cnc5c(N)ncnc54)C4CC43COP(=O)(S)OC1C2O (single isomer, unassigned) [Compound 1-14a]
EC50 [1]: 0.25 to 100 µM | EC50 [2]: > 100 µM

Nc1nc2c(ncn2C2OC34COP(=O)(O)OC5C6OCC5(COP(=O)(O)OC2C3C4)OC6n2cnc3c(N)ncnc32)c(=O)[nH]1 (stereo not drawn) [Compound 1-27]
EC50 [1]: < 0.25 µM | EC50 [2]: < 0.25 µM

COC1C2COP(=O)(S)OC3C(COP(=O)(S)OC1C(c1snc4c(=O)[nH]c(N)nc14)O2)OC(n1cnc2c(N)ncnc21)C3F (single isomer, unassigned) [Compound 1-48a]
EC50 [1]: 0.25 to 100 µM | EC50 [2]: 0.25 to 100 µM

CO[C@H]1[C@H]2OP(=O)(O)OC[C@@]34C[C@@H]3[C@@H](n3ccc5c(N)ncnc53)[C@H](O)[C@@H]4OP(=O)(O)OC[C@H]1O[C@H]2n1cnc2c(=O)[nH]c(N)nc21 [Compound 1-4]
EC50 [1]: < 0.25 µM | EC50 [2]: < 0.25 µM

Nc1nc2c(ncn2[C@@H]2O[C@@H]3CO[P@@](=O)([S][Na])O[C@H]4[C@@H](O)[C@H](n5cnc6c(N)ncnc65)[C@H]5C[C@]54COP(=O)(O)O[C@@H]2[C@@H]3F)c(=O)[nH]1 [Compound 1-22a]
EC50 [3]: 0.25 to 100 µM | EC50 [4]: 0.25 to 100 µM

Nc1nc2c(ncn2C2OC34COC2C3OP(=O)(O)OCC2OC(c3snc5c(N)ncnc35)CC2OP(=O)(O)OC4)c(=O)[nH]1 (stereo not drawn) [Compound 1-52]
EC50 [1]: < 0.25 µM | EC50 [2]: 0.25 to 100 µM

Nc1ncnc2c1ncn2[C@H]1[C@H](O)[C@@H]2O[P@](=O)([S][Na])OC[C@H]3O[C@@H](n4cnc5c(=O)[nH]cnc54)[C@H](F)[C@@H]3OP(=O)(O)OC[C@@]23C[C@H]13 [Compound 1-20a]
EC50 [3]: 0.25 to 100 µM | EC50 [4]: 0.25 to 100 µM

CO[C@H]1[C@H]2OP(=O)(O)OC[C@H]3O[C@@H](n4cnc5c(N)nnnc54)[C@H](O)[C@@H]3OP(=O)(O)OC[C@H]1O[C@H]2n1cnc2c(=O)[nH]c(N)nc21 [Compound 1-11]
EC50 [1]: > 100 µM | EC50 [2]: > 100 µM

Nc1ncnc2c1ncn2C1OC2COP(=O)(S)OC3C(O)C(n4cnc5c(N)ncnc54)C4CC43COP(=O)(S)OC1C2O (single isomer, unassigned) [Compound 1-14b]
EC50 [1]: 0.25 to 100 µM | EC50 [2]: > 100 µM

CO[C@H]1[C@H]2OP(=O)(O)OC[C@@]34C[C@@H]3[C@@H](n3cnc5c(N)ncnc53)[C@H](OP(=O)(O)OC[C@H]1O[C@H]2n1cnc2c(=O)[nH]c(N)nc21)[C@@H]4O [Compound 1-3]
EC50 [1]: 0.25 to 100 µM | EC50 [2]: > 100 µM

COC1C2COP(=O)(S)OC3C(COP(=O)(S)OC1C(c1snc4c(=O)[nH]c(N)nc14)O2)OC(n1cnc2c(N)ncnc21)C3F (stereo not drawn) [Compound 1-48c]
EC50 [1]: < 0.25 µM | EC50 [2]: 0.25 to 100 µM

CO[C@H]1[C@H]2OP(=O)(O)OC[C@]34C[C@@H]3[C@@H](n3cnc5c(N)ncnc53)[C@H](O)[C@@H]4O[P@@](=O)(S)OC[C@H]1O[C@H]2n1nnc2c(=O)[nH]c(N)nc21 [Compound 1-35b]
EC50 [1]: < 0.25 µM | EC50 [2]: 0.25 to 100 µM

COC1C2COP(=O)(S)OC3C(COP(=O)(S)OC1C(c1snc4c(=O)[nH]c(N)nc14)O2)OC(n1cnc2c(N)ncnc21)C3F (stereo not drawn) [Compound 1-48d]
EC50 [1]: < 0.25 µM

Nc1ncnc2c1ncn2[C@H]1[C@H](O)[C@@H]2O[P@@](=O)([S][Na])OC[C@H]3O[C@@H](n4cnc5c(N)ncnc54)[C@H](OP(=O)(O)OC[C@@]24C[C@H]14)[C@@H]3O [Compound 1-15b]
EC50 [3]: 0.25 to 100 µM | EC50 [4]: 0.25 to 100 µM

Nc1nc2c(ncn2[C@H]2[C@@H]3OP(=O)(O)OC[C@]45C[C@@H]4[C@@H](n4cnc6c(N)ncnc64)[C@H](O)[C@@H]5O[P@](=O)([S][Na])OC[C@@]4(C[C@H]24)[C@H]3O)c(=O)[nH]1 [Compound 1-37]
EC50 [3]: 0.25 to 100 µM | EC50 [4]: > 100 µM

Nc1nc2c(ncn2[C@@H]2O[C@@H]3COP(=O)(O)O[C@@H]4[C@@H](COP(=O)(O)O[C@H]3[C@H]2O)[C@@H]2C[C@@]2(n2cnc3c(N)ncnc32)[C@@H]4O)c(=O)[nH]1 [Compound 1-17]
EC50 [1]: < 0.25 µM | EC50 [2]: < 0.25 µM

Nc1nc2c(ncn2[C@@]23C[C@H]2[C@@H]2COP(=O)(O)O[C@H]4[C@@H](F)[C@H](n5cnc6c(N)ncnc65)O[C@@H]4COP(=O)(O)O[C@@H]3[C@@H]2O)c(=O)[nH]1 [Compound 1-24]
EC50 [1]: 0.25 to 100 µM | EC50 [2]: > 100 µM

Nc1nc2c(ncn2C2SC3COP(=O)(S)OC4C(O)C(n5cnc6c(N)ncnc65)C5CC54COP(=O)(O)OC2C3O)c(=O)[nH]1 (single isomer, unassigned) [Compound 1-30b]
EC50 [1]: > 100 µM | EC50 [2]: > 100 µM

CO[C@H]1[C@H]2OP(=O)(O)OC[C@]34C[C@@H]3[C@@H](n3cnc5c(N)ncnc53)[C@H](O)[C@@H]4O[P@](=O)([S][Na])OC[C@H]1O[C@H]2n1cnc2c(=O)[nH]c(N)nc21 [Compound 1-10a]
EC50 [3]: 0.25 to 100 µM | EC50 [4]: 0.25 to 100 µM

Nc1nc2c(ncn2[C@H]2[C@H](O)[C@@H]3OP(=O)(O)OC[C@]45C[C@@H]4[C@@H](n4cnc6c(N)ncnc64)[C@H](O)[C@@H]5O[P@@](=O)([S][Na])OC[C@@]34C[C@H]24)c(=O)[nH]1 [Compound 1-38b]
EC50 [3]: > 100 µM | EC50 [4]: > 100 µM

Nc1ncnc2c1ncn2[C@H]1[C@H](O)[C@@H]2O[P@](=O)([S][Na])OC[C@H]3O[C@@H](n4cnc5c(N)ncnc54)[C@H](OP(=O)(O)OC[C@@]24C[C@H]14)[C@@H]3O [Compound 1-15a]
EC50 [3]: > 100 µM | EC50 [4]: > 100 µM

CO[C@H]1[C@H]2OP(=O)(O)OC[C@@H]3[C@@H](OP(=O)(O)OC[C@H]1O[C@H]2n1cnc2c(=O)[nH]c(N)nc21)[C@@H](O)[C@]1(n2cnc4c(N)ncnc42)C[C@@H]31 [Compound 1-7]
EC50 [1]: < 0.25 µM | EC50 [2]: < 0.25 µM

COC1C2COP(=O)(S)OC3C(O)C(n4cnc5c(N)ncnc54)C4CC43COP(=O)(S)OC1C(n1cnc3c(=O)[nH]c(N)nc31)O2 (single isomer, unassigned) [Compound 1-6a]
EC50 [1]: 0.25 to 100 µM | EC50 [2]: 0.25 to 100 µM

Nc1nc2c(ncn2[C@H]2[C@H](O)[C@@H]3OP(=O)(O)OC[C@]45C[C@@H]4[C@@H](n4cnc6c(N)ncnc64)[C@H](O)[C@@H]5O[P@](=O)([S][Na])OC[C@@]34C[C@H]24)c(=O)[nH]1 [Compound 1-38a]
EC50 [3]: > 100 µM | EC50 [4]: > 100 µM
